Laboratory results published in US7319000B1, “Compositions and methods for eliciting immune or anti-infective responses” (priority 1992, dated 2008).
Like-named read-outs stand apart in the source and are kept apart here. Ends that are not written are not given here.

Columns and labels:
[1] = test system: spleen cells (CTL response to R15K); test: CTL activity of spleen cells after a single id footpad injection (FIG. 4)
[2] = test system: HIV-1 infection of primary human T cells; test: HIV-1 infection of primary human T cells, reverse transcriptase assay; format: cell-based; settings: peptide at 1 μg/ml; IIIB strain; RT activity after 9 days; FIG. 8
[3] = test system: HIV-1 IIIB infection of human cells; format: cell-based
3A9 target cells (H-2k) = format: in vivo, Balb/c mice; settings: effector cells: No Treatment

Compound | % RT INHIBITION [3] [%] | also measured
CC[C@H](C)[C@H](NC(=O)[C@@H](NC(=O)[C@@H](NC(=O)[C@H](Cc1ccccc1)NC(=O)[C@H](C)NC(=O)[C@H](CCCNC(=N)N)NC(=O)CNC(=O)[C@@H]1CCCN1C(=O)CNC(=O)[C@H](CCCNC(=N)N)NC(=O)[C@H](CCC(N)=O)NC(=O)[C@@H](NC(=O)[C@@H](N)CCCNC(=N)N)[C@@H](C)CC)C(C)C)[C@@H](C)O)C(=O)NCC(=O)N[C@@H](CCCCN)C(=O)O [Peptide R15K] | – | effect of anti-CD4 MAbs plus complement, or complement alone, on CTL cytotoxicity (P815 target cells (H-2d); effectors from mice immunized with monomeric peptide, FIG. 3A): no significant effect; effect of anti-CD8 MAbs and rabbit complement on CTL cytotoxicity (P815 target cells (H-2d); effectors from mice immunized with monomeric peptide, peptide treated or env expressing targets, FIG. 3A): abolished the cytotoxicity
CRIKQIINMWQGVGKAMYA [Peptide C19A] | – | CTL-inducing activity of helper T-cell peptide injected alone [1]: lacked CTL-inducing activity
HGEFAPGNYPALWSYA [Peptide B105] | – | in vivo CTL response against unmodified free synthetic peptide (P815 target cells (H-2d); same immunization protocol as Example 5): successfully generated
RAFVTIGK [Peptide R8K] | – | inhibition of HIV-1 infection of primary human T cells [2]: 66%
RIHIGPGARFLTTKN [Peptide D39, V3 loop peptide, strain MN(Y-L)] | 73.8 | –
RIHIGPGRAFFTTKN [Peptide D40, V3 loop peptide, strain MN(Y-F)] | 62.8 | –
RIHIGPGRAFYTTKN [Peptide D24, V3 loop peptide, strain MN] | 22.1 | –
RTPTGLGQSLYTTRS [Peptide D38, V3 loop peptide, strain ELI] | 33.7 | –
RVTLGPGRVWYTTGE [Peptide D29, V3 loop peptide, strain CDC4] | 0 | –
SIHIGPGRAFYATGD [Peptide D30, V3 loop peptide, strain SC] | 54.3 | –
SIRIGPGKVFTAKGG [Peptide D31, V3 loop peptide, strain Z3] | 0 | –
SISIGPGRAFFATTD [Peptide D34, V3 loop peptide, strain Z321] | 0 | –
SITKGPGRVIYATGQ [Peptide D28, V3 loop peptide, strain RF] | 0 | –
SIYIGPGRAFHTTGR [Peptide D32, V3 loop peptide, strain SF2] | 0 | –
SLSIGPGRAPRTREI [Peptide D25, V3 loop peptide, strain WMJ-3] | 42.4 | –
STPIGLGQALYTTRG [Peptide D35, V3 loop peptide, strain Z6] | 30.3 | –
STPIGLGQALYTTRI [Peptide D37, V3 loop peptide, strain JY1] | 0 | –
TYQRTRALVTG [Peptide B106, free synthetic peptide from Influenza virus nucleoprotein (aa 147-158)] | – | % Specific Lysis (3A9 target cells (H-2k); target 3A9 (MHC-mis-matched, H-2k), E:T 80:1): 0%; % Specific Lysis (3A9 target cells (H-2k); target 3A9 (MHC-mis-matched, H-2k), E:T 160:1): 0%; % Specific Lysis (3A9 target cells (H-2k); target 3A9 + B106, E:T 20:1): 0%; % Specific Lysis (3A9 target cells (H-2k); target 3A9 + B106, E:T 40:1): 0%; % Specific Lysis (3A9 target cells (H-2k); target 3A9 + B106, E:T 80:1): 0%; % Specific Lysis (3A9 target cells (H-2k); target 3A9 + B106, E:T 160:1): 0%
YNKRKRIHIGPGRAFYTTKNNIGC [Peptide D23, V3 loop peptide, strain MN] | 98.8 | –
